Reference: patent US7910577B2 (priority 2004, dated 2011)

What was measured:
[1] = particle size, Horiba LA 910 particle size analyzer; conditions: unmilled drug crystals, before incorporation into nanoparticulate formulation
[2] = cited from earlier work

For `Cc1cc2c(s1)Nc1ccccc1N=C2N1CCN(C)CC1` [Olanzapine, 2-methyl-4-(4-methyl-1-piperazinyl) -10H-thieno[2,3-b][1,5]benzodiazepine], the mean particle size [1] is given as 137.08 microns and the solubility in water [2] is given as “practically insoluble in water”.
